In brackets after ≈: the same amount, converted by molar mass.
Legend:
Streptococcus pneumoniae [1] = assay: Antibacterial activity against erythromycin-susceptible Streptococcus pneumoniae ATCC 49619
Streptococcus pneumoniae [2] = assay: Antibacterial activity against erythromycin-resistant Streptococcus pneumoniae B1 encoded by erm gene
Streptococcus pneumoniae [3] = assay: Antibacterial activity against erythromycin-resistant Streptococcus pneumoniae A22072 encoded by mef gene
Streptococcus pneumoniae [4] = assay: Antibacterial activity against erythromycin-resistant Streptococcus pneumoniae AB11 encoded by erm and mef gene

Row | SMILES | MIC (Streptococcus pneumoniae [1]) | MIC (Streptococcus pneumoniae [2]) | MIC (Streptococcus pneumoniae [3]) | MIC (Streptococcus pneumoniae [4])
1 | CC[C@H]1OC(=O)[C@H](C)[C@@H](O[C@H]2C[C@@](C)(OC)[C@@H](OC(=O)NCCc3ccc(O)cc3)[C@H](C)O2)[C@H](C)[C@@H](O[C@@H]2O[C@H](C)C[C@H](N(C)C)[C@H]2O)[C@@](C)(O)C[C@@H](C)CN(C)[C@H](C)[C@@H](OC(=O)NCCc2ccccc2Cl)[C@]1(C)O | < 0.03 µg/mL | 0.25 µg/mL (≈ 0.229 µM) | 0.25 µg/mL (≈ 0.229 µM) | 16 µg/mL (≈ 14.6 µM)
2 | CCCCNC(=O)O[C@H]1[C@H](C)O[C@@H](O[C@H]2[C@H](C)[C@@H](O[C@@H]3O[C@H](C)C[C@H](N(C)C)[C@H]3O)[C@@](C)(O)C[C@@H](C)CN(C)[C@H](C)[C@@H](O)[C@](C)(O)[C@@H](CC)OC(=O)[C@@H]2C)C[C@@]1(C)OC | < 0.03 µg/mL | 8 µg/mL (≈ 9.43 µM) | 1 µg/mL (≈ 1.18 µM) | 128 µg/mL (≈ 151 µM)
3 | CC[C@H]1OC(=O)[C@H](C)[C@@H](O[C@H]2C[C@@](C)(OC)[C@@H](OC(=O)NCc3ccc(OC)cc3)[C@H](C)O2)[C@H](C)[C@@H](O[C@@H]2O[C@H](C)C[C@H](N(C)C)[C@H]2O)[C@@](C)(O)C[C@@H](C)CN(C)[C@H](C)[C@H]2OC(=O)O[C@@]21C | < 0.03 µg/mL | 8 µg/mL (≈ 8.53 µM) | 0.25 µg/mL (≈ 0.266 µM) | 16 µg/mL (≈ 17.1 µM)
4 | CC[C@H]1OC(=O)[C@H](C)[C@@H](O[C@H]2C[C@@](C)(OC)[C@@H](OC(=O)NCc3ccc(F)cc3)[C@H](C)O2)[C@H](C)[C@@H](O[C@@H]2O[C@H](C)C[C@H](N(C)C)[C@H]2O)[C@@](C)(O)C[C@@H](C)CN(C)[C@H](C)[C@H]2OC(=O)O[C@@]21C | 0.06 µg/mL (≈ 0.0648 µM) | 8 µg/mL (≈ 8.64 µM) | 0.06 µg/mL (≈ 0.0648 µM) | 4 µg/mL (≈ 4.32 µM)
5 | CC[C@H]1OC(=O)[C@H](C)[C@@H](O[C@H]2C[C@@](C)(OC)[C@@H](OC(=O)NCCc3ccccc3)[C@H](C)O2)[C@H](C)[C@@H](O[C@@H]2O[C@H](C)C[C@H](N(C)C)[C@H]2O)[C@@](C)(O)C[C@@H](C)CN(C)[C@H](C)[C@H]2OC(=O)O[C@@]21C | 0.06 µg/mL (≈ 0.0651 µM) | 8 µg/mL (≈ 8.68 µM) | 0.06 µg/mL (≈ 0.0651 µM) | 2 µg/mL (≈ 2.17 µM)
6 | CC[C@H]1OC(=O)[C@H](C)[C@@H](O[C@H]2C[C@@](C)(OC)[C@@H](OC(=O)NCCc3ccccc3)[C@H](C)O2)[C@H](C)[C@@H](O[C@@H]2O[C@H](C)C[C@H](N(C)C)[C@H]2O)[C@@](C)(O)C[C@@H](C)CN(C)[C@H](C)[C@@H](O)[C@]1(C)O | 0.06 µg/mL (≈ 0.067 µM) | 8 µg/mL (≈ 8.93 µM) | 1 µg/mL (≈ 1.12 µM) | 32 µg/mL (≈ 35.7 µM)
7 | CCCNC(=O)O[C@H]1[C@H](C)O[C@@H](O[C@H]2[C@H](C)[C@@H](O[C@@H]3O[C@H](C)C[C@H](N(C)C)[C@H]3O)[C@@](C)(O)C[C@@H](C)CN(C)[C@H](C)[C@@H](O)[C@](C)(O)[C@@H](CC)OC(=O)[C@@H]2C)C[C@@]1(C)OC | 0.12 µg/mL (≈ 0.144 µM) | 64 µg/mL (≈ 76.7 µM) | 4 µg/mL (≈ 4.8 µM) | 64 µg/mL (≈ 76.7 µM)
8 | CC[C@H]1OC(=O)[C@H](C)[C@@H](O[C@H]2C[C@@](C)(OC)[C@@H](O)[C@H](C)O2)[C@H](C)[C@@H](O[C@@H]2O[C@H](C)C[C@H](N(C)C)[C@H]2O)[C@](C)(OC)C[C@@H](C)C(=O)[C@H](C)[C@@H](O)[C@]1(C)O [CLARITHROMYCIN] | < 0.03 µg/mL | 64 µg/mL (≈ 85.6 µM) | 4 µg/mL (≈ 5.35 µM) | 128 µg/mL (≈ 171 µM)
9 | CC[C@H]1OC(=O)[C@H](C)[C@@H](O[C@H]2C[C@@](C)(OC)[C@@H](OC(=O)NCc3ccc(F)cc3)[C@H](C)O2)[C@H](C)[C@@H](O[C@@H]2O[C@H](C)C[C@H](N(C)C)[C@H]2O)[C@@](C)(O)C[C@@H](C)CN(C)[C@H](C)[C@@H](O)[C@]1(C)O | < 0.03 µg/mL | 4 µg/mL (≈ 4.44 µM) | 0.25 µg/mL (≈ 0.278 µM) | 16 µg/mL (≈ 17.8 µM)
10 | CC[C@H]1OC(=O)[C@H](C)[C@@H](O[C@H]2C[C@@](C)(OC)[C@@H](OC(=O)NCCc3ccccc3Cl)[C@H](C)O2)[C@H](C)[C@@H](O[C@@H]2O[C@H](C)C[C@H](N(C)C)[C@H]2O)[C@@](C)(O)C[C@@H](C)CN(C)[C@H](C)[C@@H](OC(=O)NCCc2ccc(O)cc2)[C@]1(C)O | < 0.03 µg/mL | 0.25 µg/mL (≈ 0.229 µM) | 0.06 µg/mL (≈ 0.0549 µM) | 16 µg/mL (≈ 14.6 µM)
11 | CCCCCNC(=O)O[C@H]1[C@H](C)O[C@@H](O[C@H]2[C@H](C)[C@@H](O[C@@H]3O[C@H](C)C[C@H](N(C)C)[C@H]3O)[C@@](C)(O)C[C@@H](C)CN(C)[C@H](C)[C@H]3OC(=O)O[C@]3(C)[C@@H](CC)OC(=O)[C@@H]2C)C[C@@]1(C)OC | 0.06 µg/mL (≈ 0.0676 µM) | 16 µg/mL (≈ 18 µM) | 8 µg/mL (≈ 9.01 µM) | 16 µg/mL (≈ 18 µM)
12 | CC[C@H]1OC(=O)[C@H](C)[C@@H](O[C@H]2C[C@@](C)(OC)[C@@H](OC(=O)NC3CCCCC3)[C@H](C)O2)[C@H](C)[C@@H](O[C@@H]2O[C@H](C)C[C@H](N(C)C)[C@H]2O)[C@@](C)(O)C[C@@H](C)CN(C)[C@H](C)[C@H]2OC(=O)O[C@@]21C | 0.06 µg/mL (≈ 0.0667 µM) | 16 µg/mL (≈ 17.8 µM) | 2 µg/mL (≈ 2.22 µM) | 32 µg/mL (≈ 35.5 µM)
13 | CCCCNC(=O)O[C@H]1[C@H](C)O[C@@H](O[C@H]2[C@H](C)[C@@H](O[C@@H]3O[C@H](C)C[C@H](N(C)C)[C@H]3O)[C@@](C)(O)C[C@@H](C)CN(C)[C@H](C)[C@H]3OC(=O)O[C@]3(C)[C@@H](CC)OC(=O)[C@@H]2C)C[C@@]1(C)OC | 0.12 µg/mL (≈ 0.137 µM) | 8 µg/mL (≈ 9.15 µM) | 1 µg/mL (≈ 1.14 µM) | 16 µg/mL (≈ 18.3 µM)
14 | CC[C@H]1OC(=O)[C@H](C)[C@@H](O[C@H]2C[C@@](C)(OC)[C@@H](OC(=O)NCCc3ccc4c(c3)OCO4)[C@H](C)O2)[C@H](C)[C@@H](O[C@@H]2O[C@H](C)C[C@H](N(C)C)[C@H]2O)[C@@](C)(O)C[C@@H](C)CN(C)C(C)[C@H]2OC(=O)O[C@@]21C (some centres not stated) | < 0.03 µg/mL | 4 µg/mL (≈ 4.14 µM) | 0.06 µg/mL (≈ 0.0621 µM) | 2 µg/mL (≈ 2.07 µM)
15 | CC[C@H]1OC(=O)[C@H](C)[C@@H](O[C@H]2C[C@@](C)(OC)[C@@H](OC(=O)NCCc3ccccc3Cl)[C@H](C)O2)[C@H](C)[C@@H](O[C@@H]2O[C@H](C)C[C@H](N(C)C)[C@H]2O)[C@@](C)(O)C[C@@H](C)CN(C)[C@H](C)[C@@H](OC(=O)NCc2ccccc2)[C@]1(C)O | < 0.03 µg/mL | 0.25 µg/mL (≈ 0.235 µM) | 0.25 µg/mL (≈ 0.235 µM) | 4 µg/mL (≈ 3.76 µM)
16 | CC[C@H]1OC(=O)[C@H](C)[C@@H](O[C@H]2C[C@@](C)(OC)[C@@H](OC(=O)NCCc3ccccc3Cl)[C@H](C)O2)[C@H](C)[C@@H](O[C@@H]2O[C@H](C)C[C@H](N(C)C)[C@H]2O)[C@@](C)(O)C[C@@H](C)CN(C)[C@H](C)[C@H]2OC(=O)O[C@@]21C | 0.06 µg/mL (≈ 0.0627 µM) | 8 µg/mL (≈ 8.36 µM) | 0.25 µg/mL (≈ 0.261 µM) | 2 µg/mL (≈ 2.09 µM)
17 | C=CCNC(=O)O[C@H]1[C@H](C)O[C@@H](O[C@H]2[C@H](C)[C@@H](O[C@@H]3O[C@H](C)C[C@H](N(C)C)[C@H]3O)[C@@](C)(O)C[C@@H](C)CN(C)[C@H](C)[C@@H](O)[C@](C)(O)[C@@H](CC)OC(=O)[C@@H]2C)C[C@@]1(C)OC | < 0.03 µg/mL | 16 µg/mL (≈ 19.2 µM) | 1 µg/mL (≈ 1.2 µM) | 32 µg/mL (≈ 38.5 µM)
18 | CC[C@H]1OC(=O)[C@H](C)[C@@H](O[C@H]2C[C@@](C)(OC)[C@@H](OC(=O)NCc3ccc(F)cc3)[C@H](C)O2)[C@H](C)[C@@H](O[C@@H]2O[C@H](C)C[C@H](N(C)C)[C@H]2O)[C@@](C)(O)C[C@@H](C)CN(C)[C@H](C)[C@@H](OC(=O)NCCc2ccccc2Cl)[C@]1(C)O | < 0.03 µg/mL | 0.25 µg/mL (≈ 0.231 µM) | 0.12 µg/mL (≈ 0.111 µM) | 2 µg/mL (≈ 1.85 µM)
